Measurements: patent US9475776B2, “PRMT1 inhibitors and uses thereof” (Epizyme, Inc., priority 2013, dated 2016)
pIC50: −log10 of the molar value.

Assays:
PRMT1 = biological target: T1, PRMT1 (Homo sapiens, UniProt Q99873); test: PRMT1 biochemical assay (3H-SAM Flashplate, histone H4 peptide substrate); conditions: GST-tagged full-length human PRMT1 0.5 nM, 30 min preincubation, peptide 20 nM
T1 construct: GST-tagged PRMT1; made in house; host or cells: High Five insect cells (baculovirus, pFastBacI)
Description: S-adenosylmethionine (SAM), S-adenosylhomocysteine (SAH), bicine, Tween20, dimethylsulfoxide (DMSO), bovine skin gelatin (BSG), and Tris(2-carboxyethyl)phosphine hydrochloride solution (TCEP) were purchased from Sigma-Aldrich at the highest level of purity possible. ^3H-SAM was purchase from American Radiolabeled Chemicals with a specific activity of 80 Ci/mmol. 384-well streptavidin Flashplates were purchased from PerkinElmer.
Peptide representative of human histone H4 residues 36-50 was synthesized with an N-terminal linker-affinity tag motif and a C-terminal amide cap by 21st Century Biochemicals. The peptide was purified by high-performance liquid chromatography (HPLC) to greater than 95% purity and confirmed by liquid chromatography mass spectrometry (LC-MS). The sequence was Biot-Ahx-RLARRGGVKRISGLI-amide (SEQ ID NO.: 1).
Full-length human PRMT1 isoform 1 (NM_001536.5) transcript clone was amplified from an HEK 293 cDNA library, incorporating flanking 5′ sequence encoding a FLAG tag (DYKDDDDK) (SEQ ID NO.:2) fused directly to Met 1 of PRMT1. The amplified gene was subcloned into pFastBacI (Life Technologies) modified to encode an N-terminal GST tag and a TEV cleavage sequence ([…] […] […] […]) (SEQ ID NO.:3) fused to Asp of the Flag tag of PRMT1.
Recombinant baculovirus were generated according to Bac-to-Bac kit instructions (Life Technologies). Protein over-expression was accomplished by infecting exponentially growing High Five insect cell culture at 1.5×10^6 cell/ml with 1:100 ratio of virus. Infections were carried out at 27° C. for 48 hours, harvested by centrifugation, and stored at −80° C. for purification. […]

[1] = system: mono-methyl arginine in RKO cells; test: RKO methylation assay (In Cell Western for mono-methyl arginine and DNA content); format: cell-based; conditions: 72 hours, percent activation of mono-methyl arginine signal normalised to DNA content
Description: RKO adherent cells were purchased from ATCC (American Type Culture Collection), Manassas, Va., USA. DMEM/Glutamax medium, penicillin-streptomycin, heat inactivated fetal bovine serum, 0.05% trypsin and D-PBS were purchased from Life Technologies, Grand Island, N.Y., USA. Odyssey blocking buffer, 800CW goat anti-rabbit IgG (H+L) antibody, and Licor Odyssey infrared scanner were purchased from Licor Biosciences, Lincoln, Nebr., USA. Mono-methyl arginine antibody was purchased from Cell Signaling Technology, Danvers, Mass., USA.
Methanol was purchased from VWR, Franklin, Mass., USA. 10% Tween 20 was purchased from KPL, Inc., Gaithersburg, Md., USA. DRAQ5 was purchased from Biostatus Limited, Leicestershire, UK. […]
First, the ratio for each well was determined by:
Each plate included fourteen control wells of DMSO only treatment (minimum activation) as well as fourteen control wells for maximum activation treated with 20 μM of a reference compound. The average of the ratio values for each control type was calculated and used to determine the percent activation for each test well in the plate. […] Percent activation was determined and EC30 curves were generated using triplicate wells per concentration of compound.

T1 sequence (Q99873 with tags, fused parts or gaps): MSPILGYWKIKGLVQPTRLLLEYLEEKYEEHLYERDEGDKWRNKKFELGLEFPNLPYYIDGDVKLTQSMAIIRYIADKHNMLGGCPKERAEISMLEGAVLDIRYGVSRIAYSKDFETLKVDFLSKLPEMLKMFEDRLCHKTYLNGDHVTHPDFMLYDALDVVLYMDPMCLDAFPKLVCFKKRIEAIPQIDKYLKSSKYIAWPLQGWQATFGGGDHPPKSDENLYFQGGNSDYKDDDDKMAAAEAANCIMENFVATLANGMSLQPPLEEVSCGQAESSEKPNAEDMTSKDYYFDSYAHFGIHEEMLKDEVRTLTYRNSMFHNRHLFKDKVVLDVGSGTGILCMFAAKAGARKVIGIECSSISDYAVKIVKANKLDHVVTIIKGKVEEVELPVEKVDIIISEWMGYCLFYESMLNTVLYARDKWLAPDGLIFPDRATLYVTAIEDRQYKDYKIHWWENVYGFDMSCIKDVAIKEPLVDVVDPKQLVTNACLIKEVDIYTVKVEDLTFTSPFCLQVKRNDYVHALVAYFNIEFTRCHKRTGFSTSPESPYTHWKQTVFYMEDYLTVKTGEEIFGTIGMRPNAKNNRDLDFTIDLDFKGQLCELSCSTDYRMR

Row | Compound | pIC50 (PRMT1) | In Cell Western EC30 [1]
1 | C=CC(=O)Nc1ccc(-c2[nH]ncc2CN(C)CCNC)cc1 [Compound 2, N-(4-(4-((methyl(2-(methylamino)ethyl)amino)methyl)-1H-pyrazol-3-yl)phenyl)acrylamide] | 6.00 to 7.00 | C (“C” indicates an EC30 ≧ 12.01 μM)
2 | 3-methyl-N-(3-(4-((methyl (2-(methylamino)ethyl)amino)methyl)-1H-pyrazol-3-yl)phenyl)but-2-enamide [Compound 3] | 6.00 to 7.00 | 
3 | C=C(C)C(=O)Nc1ccc(-c2[nH]ncc2CN(C)CCNC)cc1 [Compound 1, N-(4-(4-((methyl(2-(methylamino)ethyl)amino)methyl)-1H-pyrazol-3-yl)phenyl)methacrylamide] | > 7.00 | B (“B” indicates an EC30 of 3.01-12.00 μM)
